Measurements reported in the NIST ThermoML archive (doi:10.1021/je100734t).

Experiment: xn = mol fraction of the nth substance listed
Conditions: 101 kPa, Liquid; for speed of sound: Pulse-echo method

Cc1cccc(C)c1 [1,3-dimethylbenzene] + CCCCCCCCCCO
Conditions | mass density, 293.15 K [kg/m3] | mass density, 303.15 K [kg/m3] | mass density, 313.15 K [kg/m3] | speed of sound, 293.15 K [m/s] | speed of sound, 303.15 K [m/s] | speed of sound, 313.15 K [m/s]
x1 = 0.0627 | 831.48 | 824.51 | 817.53 | 1392 | 1358 | 1324
x1 = 0.1424 | 833.39 | 826.27 | 819.18 | 1388 | 1352 | 1318
x1 = 0.2052 | 834.93 | 827.72 | 820.53 | 1383 | 1347 | 1312
x1 = 0.2618 | 836.35 | 829.06 | 821.78 | 1379 | 1343 | 1308
x1 = 0.3217 | 837.9 | 830.53 | 823.14 | 1375 | 1338 | 1302
x1 = 0.3934 | 839.84 | 832.37 | 824.85 | 1369 | 1332 | 1296
x1 = 0.4989 | 842.94 | 835.28 | 827.6 | 1361 | 1324 | 1287
x1 = 0.5581 | 844.81 | 837.05 | 829.26 | 1357 | 1319 | 1282
x1 = 0.6343 | 847.44 | 839.52 | 831.6 | 1352 | 1313 | 1276
x1 = 0.7131 | 850.41 | 842.31 | 834.24 | 1348 | 1308 | 1270
x1 = 0.7991 | 853.99 | 845.71 | 837.47 | 1344 | 1304 | 1265
x1 = 0.8465 | 856.11 | 847.74 | 839.4 | 1342 | 1302 | 1262
x1 = 0.8964 | 858.52 | 850.09 | 841.61 | 1341 | 1300 | 1260
x1 = 0.9421 | 860.9 | 852.38 | 843.82 | 1341 | 1300 | 1259
x1 = 1 | 864.18 | 855.56 | 846.9 | 1340 | 1300 | 1259

CCCCCCCCCCO [decan-1-ol] + CCc1ccccc1
Conditions | mass density, 293.15 K [kg/m3] | mass density, 303.15 K [kg/m3] | mass density, 313.15 K [kg/m3] | speed of sound, 293.15 K [m/s] | speed of sound, 303.15 K [m/s] | speed of sound, 313.15 K [m/s]
x2 = 0 | 829.98 | 823.1 | 816.27 | 1396 | 1362 | 1329
x2 = 0.0666 | 831.5 | 824.47 | 817.46 | 1391 | 1356 | 1322
x2 = 0.1392 | 833.18 | 826 | 818.82 | 1385 | 1350 | 1316
x2 = 0.1932 | 834.47 | 827.18 | 819.88 | 1381 | 1345 | 1310
x2 = 0.2642 | 836.24 | 828.8 | 821.32 | 1375 | 1339 | 1304
x2 = 0.3355 | 838.11 | 830.52 | 822.85 | 1369 | 1333 | 1297
x2 = 0.3936 | 839.72 | 832.03 | 824.21 | 1364 | 1327 | 1291
x2 = 0.4483 | 841.33 | 833.52 | 825.58 | 1360 | 1322 | 1286
x2 = 0.5238 | 843.73 | 835.78 | 827.65 | 1354 | 1316 | 1279
x2 = 0.598 | 846.33 | 838.23 | 829.91 | 1349 | 1310 | 1273
x2 = 0.6621 | 848.79 | 840.59 | 832.13 | 1344 | 1305 | 1268
x2 = 0.7309 | 851.72 | 843.4 | 834.8 | 1341 | 1301 | 1263
x2 = 0.7953 | 854.7 | 846.31 | 837.56 | 1338 | 1298 | 1259
x2 = 0.8668 | 858.41 | 849.96 | 841.06 | 1336 | 1295 | 1256
x2 = 0.9396 | 862.65 | 854.3 | 845.13 | 1336 | 1295 | 1255

CCCCCCCCCCO [decan-1-ol] + Cc1ccc(C)cc1
Conditions | mass density, 293.15 K [kg/m3] | mass density, 303.15 K [kg/m3] | mass density, 313.15 K [kg/m3] | speed of sound, 293.15 K [m/s] | speed of sound, 303.15 K [m/s] | speed of sound, 313.15 K [m/s]
x2 = 0 | 829.98 | 823.1 | 816.27 | 1396 | 1362 | 1329
x2 = 0.0806 | 831.76 | 824.74 | 817.76 | 1391 | 1356 | 1322
x2 = 0.1731 | 833.82 | 826.66 | 819.54 | 1385 | 1349 | 1314
x2 = 0.2506 | 835.6 | 828.33 | 821.08 | 1378 | 1342 | 1307
x2 = 0.3197 | 837.25 | 829.88 | 822.5 | 1373 | 1336 | 1300
x2 = 0.3693 | 838.49 | 831.04 | 823.57 | 1368 | 1331 | 1295
x2 = 0.4336 | 840.17 | 832.6 | 825.02 | 1362 | 1325 | 1289
x2 = 0.4929 | 841.79 | 834.12 | 826.43 | 1357 | 1320 | 1283
x2 = 0.5771 | 844.26 | 836.42 | 828.58 | 1350 | 1312 | 1275
x2 = 0.662 | 846.98 | 838.96 | 830.98 | 1344 | 1305 | 1267
x2 = 0.7265 | 849.2 | 841.06 | 832.94 | 1340 | 1300 | 1262
x2 = 0.7763 | 851.04 | 842.8 | 834.58 | 1337 | 1297 | 1258
x2 = 0.8293 | 853.13 | 844.77 | 836.44 | 1335 | 1294 | 1255
x2 = 0.8891 | 855.65 | 847.2 | 838.71 | 1333 | 1292 | 1252
x2 = 0.9369 | 857.84 | 849.27 | 840.68 | 1332 | 1290 | 1250

CCCCCCCCCCO [decan-1-ol] + Cc1ccccc1C
Conditions | mass density, 293.15 K [kg/m3] | mass density, 303.15 K [kg/m3] | mass density, 313.15 K [kg/m3] | speed of sound, 293.15 K [m/s] | speed of sound, 303.15 K [m/s] | speed of sound, 313.15 K [m/s]
x2 = 0 | 829.98 | 823.1 | 816.27 | 1396 | 1362 | 1329
x2 = 0.0766 | 832.48 | 825.52 | 818.51 | 1394 | 1359 | 1325
x2 = 0.1331 | 834.38 | 827.33 | 820.23 | 1391 | 1356 | 1322
x2 = 0.1823 | 836.1 | 828.96 | 821.79 | 1389 | 1354 | 1319
x2 = 0.2509 | 838.57 | 831.31 | 824.05 | 1386 | 1350 | 1315
x2 = 0.3173 | 841.06 | 833.71 | 826.36 | 1383 | 1347 | 1311
x2 = 0.3896 | 843.95 | 836.48 | 829.02 | 1379 | 1343 | 1307
x2 = 0.4556 | 846.73 | 839.16 | 831.61 | 1376 | 1339 | 1303
x2 = 0.5261 | 849.91 | 842.23 | 834.57 | 1372 | 1335 | 1298
x2 = 0.6054 | 853.77 | 845.95 | 838.18 | 1369 | 1332 | 1294
x2 = 0.6597 | 856.61 | 848.71 | 840.85 | 1367 | 1329 | 1292
x2 = 0.7364 | 860.94 | 852.91 | 844.92 | 1365 | 1327 | 1289
x2 = 0.8029 | 865.03 | 856.89 | 848.8 | 1364 | 1325 | 1287
x2 = 0.873 | 869.74 | 861.49 | 853.27 | 1364 | 1325 | 1287
x2 = 0.9447 | 875.04 | 866.72 | 858.33 | 1366 | 1326 | 1287

CCCCCCCCCO [nonan-1-ol] + CCc1ccccc1
Conditions | mass density, 293.15 K [kg/m3] | mass density, 303.15 K [kg/m3] | mass density, 313.15 K [kg/m3] | speed of sound, 293.15 K [m/s] | speed of sound, 303.15 K [m/s] | speed of sound, 313.15 K [m/s]
x2 = 0 | 827.7 | 820.82 | 813.88 | 1381 | 1347 | 1314
x2 = 0.0611 | 829.32 | 822.34 | 815.3 | 1378 | 1343 | 1309
x2 = 0.1285 | 831.14 | 824.06 | 816.91 | 1374 | 1338 | 1304
x2 = 0.1791 | 832.56 | 825.4 | 818.16 | 1371 | 1335 | 1300
x2 = 0.2466 | 834.5 | 827.23 | 819.87 | 1366 | 1330 | 1294
x2 = 0.3151 | 836.57 | 829.17 | 821.69 | 1362 | 1324 | 1288
x2 = 0.3717 | 838.35 | 830.85 | 823.26 | 1358 | 1320 | 1283
x2 = 0.4254 | 840.12 | 832.51 | 824.82 | 1354 | 1316 | 1279
x2 = 0.5007 | 842.74 | 834.99 | 827.14 | 1349 | 1311 | 1273
x2 = 0.5756 | 845.55 | 837.63 | 829.63 | 1345 | 1306 | 1267
x2 = 0.6411 | 848.19 | 840.11 | 831.97 | 1341 | 1302 | 1263
x2 = 0.7122 | 851.28 | 843.05 | 834.74 | 1339 | 1298 | 1259
x2 = 0.7798 | 854.46 | 846.08 | 837.59 | 1337 | 1296 | 1257
x2 = 0.8557 | 858.37 | 849.81 | 841.14 | 1336 | 1295 | 1255
x2 = 0.9341 | 862.85 | 854.1 | 845.28 | 1338 | 1295 | 1254
